Where two headings read alike, the source gives them in different places.
Biological target: T1, NHSSP (Onygena corvina, UniProt A0A0B4VM82)
T1 sequence (A0A0B4VM82 113-391): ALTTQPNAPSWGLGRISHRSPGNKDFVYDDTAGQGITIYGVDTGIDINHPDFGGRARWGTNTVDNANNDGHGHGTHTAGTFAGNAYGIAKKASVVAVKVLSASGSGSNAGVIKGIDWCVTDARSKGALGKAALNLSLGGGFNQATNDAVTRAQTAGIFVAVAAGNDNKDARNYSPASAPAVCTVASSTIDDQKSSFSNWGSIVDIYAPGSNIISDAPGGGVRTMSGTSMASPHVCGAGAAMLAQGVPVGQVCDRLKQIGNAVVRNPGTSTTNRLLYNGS
Assay: biochemical
Format: biochemical
Method: The influence of different inhibitors on the enzymatic activity of NHSSP was determined by hydrolysis of azocasein in Britton-Robinson buffer pH 6.5 supplemented with appropriate substances. The reaction was stopped by the addition of TCA to the final concentration of 293 mM, centrifuged as described above, and the absorbance of supernatants was measured at 450 nm.
The enzymatic reaction was carried out at 40°C with a final inhibitor concentration of 1 mM.

[1] = final inhibitor concentration of 1 mM, 40°C, pH 6.5
[2] = remaining NHSSP activity, final inhibitor concentration of 1 mM, 40°C, Britton-Robinson buffer pH 6.5, read-out: Activity (%)

| Structure (SMILES) | inhibition of NHSSP protease activity (in words) [1] | activity at 1000 µM [2] | activity at 1000 µM (pH 6.5) | inhibition of NHSSP protease activity (in words) (pH 6.5) | Activity (%) (remaining NHSSP activity, final inhibitor concentration of 1 mM, 40°C, Britton-Robinson buffer pH 6.5) |
| --- | --- | --- | --- | --- | --- |
| OCCS [2-ß ME, ß-mercaptoethanol] | did not significantly inhibit protease activity | 99% |  |  |  |
| O=C(O)CN(CCN(CC(=O)O)CC(=O)O)CC(=O)O [EDTA, ethylenediamine tetraacetate] |  |  | 100% | did not significantly inhibit protease activity |  |
| O=S(=O)(F)Cc1ccccc1 [PMSF, phenylmethylsulfonyl fluoride] | identified as an inhibitor of NHSSP |  |  |  | 40% |
| O=C(O)CCP(CCC(=O)O)CCC(=O)O [TCEP] | did not significantly inhibit protease activity | 97% |  |  |  |

— patent EP3441475A1, “NEUTRAL HEAT-SENSITIVE SERINE PROTEASE DERIVED FROM O. CORVINA” (priority 2017, dated 2019)
